In assay [1] the target is Calcium/calmodulin-dependent protein kinase type II subunit gamma (Homo sapiens) (UniProt Q13555). Kind of assay: Selectivity interaction (ProQinase) EUB0000171b CAMK2G.
Assay [2] deals with Phosphatidylinositol 4-kinase beta (Homo sapiens, UniProt Q9UBF8). Kind of assay: Selectivity interaction (ProQinase) EUB0000171b PI4KB.
Assay [3] deals with AP2-associated protein kinase 1 (Homo sapiens, UniProt Q2M2I8). As to the kind of experiment: Selectivity interaction (KinomeScan (DiscoverX)) EUB0001049a AAK1. Particulars: at 1 µM.
Assay [4] concerns the target Cyclin-dependent kinase 9 (Homo sapiens, UniProt P50750). As to the kind of experiment: Selectivity interaction (KinomeScan (DiscoverX)) EUB0001049a CDK9. Particulars: at 1 µM.
The target of assay [5] is T1, Serine/threonine-protein kinase BRSK1 (Homo sapiens) (UniProt Q8TDC3).
T1 sequence (whole entry): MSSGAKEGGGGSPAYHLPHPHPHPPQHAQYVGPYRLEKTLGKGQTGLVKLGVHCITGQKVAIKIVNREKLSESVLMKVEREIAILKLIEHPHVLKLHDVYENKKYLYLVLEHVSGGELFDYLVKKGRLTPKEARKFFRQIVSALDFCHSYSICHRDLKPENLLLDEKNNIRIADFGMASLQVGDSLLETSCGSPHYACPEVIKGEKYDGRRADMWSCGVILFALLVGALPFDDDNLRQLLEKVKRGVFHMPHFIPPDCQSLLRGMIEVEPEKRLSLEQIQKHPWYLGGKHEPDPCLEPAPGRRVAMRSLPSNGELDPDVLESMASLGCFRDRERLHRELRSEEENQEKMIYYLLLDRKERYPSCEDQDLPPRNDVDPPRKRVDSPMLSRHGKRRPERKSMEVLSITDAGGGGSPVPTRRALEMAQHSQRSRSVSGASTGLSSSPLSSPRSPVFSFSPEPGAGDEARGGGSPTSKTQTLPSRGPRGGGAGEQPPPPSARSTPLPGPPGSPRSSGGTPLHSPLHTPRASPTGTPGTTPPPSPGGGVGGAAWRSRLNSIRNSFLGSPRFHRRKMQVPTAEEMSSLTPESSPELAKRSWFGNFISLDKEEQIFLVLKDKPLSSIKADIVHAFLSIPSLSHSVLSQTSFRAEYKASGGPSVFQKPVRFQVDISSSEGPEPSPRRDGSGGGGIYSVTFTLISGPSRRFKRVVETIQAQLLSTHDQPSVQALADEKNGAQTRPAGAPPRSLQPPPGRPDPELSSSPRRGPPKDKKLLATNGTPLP
Kind of assay: Selectivity interaction (Kinase panel (Z-LYTE Assay)) EUB0001632a BRSK1. Particulars: at 10 µM.

Assay [6] concerns the target Death-associated protein kinase 3 (Homo sapiens) (UniProt O43293). As to the kind of experiment: Selectivity interaction (Kinase panel (Z-LYTE Assay)) EUB0001632a DAPK3. Particulars: at 10 µM.
Assay [7] has as its target Serine/threonine-protein kinase WNK3 (Homo sapiens) (UniProt Q9BYP7). Kind of assay: Selectivity interaction (KinomeScan (DiscoverX)) EUB0000229b WNK3. Particulars: at 10 µM.
The target in assay [8] is 5-hydroxytryptamine receptor 1A (Homo sapiens, UniProt P08908). Kind of assay: Selectivity interaction (Serotonin 5HT1A Calcium flux assay, agonist and antagonist mode ) EUB0000877a HTR1A.
For assay [9], the target named is T2, Tyrosine-protein kinase TXK (Homo sapiens) (UniProt P42681).
T2 sequence (whole entry): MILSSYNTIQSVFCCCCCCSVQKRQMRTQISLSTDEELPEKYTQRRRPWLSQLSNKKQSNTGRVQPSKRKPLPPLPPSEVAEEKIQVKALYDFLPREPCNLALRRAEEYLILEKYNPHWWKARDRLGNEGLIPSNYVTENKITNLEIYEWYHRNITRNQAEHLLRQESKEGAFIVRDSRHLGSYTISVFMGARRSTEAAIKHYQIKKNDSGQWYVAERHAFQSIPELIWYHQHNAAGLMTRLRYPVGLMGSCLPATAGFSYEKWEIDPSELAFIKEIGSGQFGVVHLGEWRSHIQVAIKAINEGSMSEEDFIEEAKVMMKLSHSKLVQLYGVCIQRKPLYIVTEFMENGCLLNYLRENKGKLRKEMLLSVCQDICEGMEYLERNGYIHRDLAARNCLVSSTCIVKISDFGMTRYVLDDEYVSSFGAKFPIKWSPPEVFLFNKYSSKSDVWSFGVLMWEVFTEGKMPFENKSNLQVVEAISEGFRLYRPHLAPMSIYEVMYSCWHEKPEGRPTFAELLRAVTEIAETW
As to the kind of experiment: Selectivity interaction (KinomeScan (DiscoverX)) EUB0001619a TXK. Particulars: at 1 µM.

Assay [10] concerns the target T3, Serine/threonine-protein kinase D2 (Homo sapiens) (UniProt Q9BZL6).
T3 sequence (whole entry): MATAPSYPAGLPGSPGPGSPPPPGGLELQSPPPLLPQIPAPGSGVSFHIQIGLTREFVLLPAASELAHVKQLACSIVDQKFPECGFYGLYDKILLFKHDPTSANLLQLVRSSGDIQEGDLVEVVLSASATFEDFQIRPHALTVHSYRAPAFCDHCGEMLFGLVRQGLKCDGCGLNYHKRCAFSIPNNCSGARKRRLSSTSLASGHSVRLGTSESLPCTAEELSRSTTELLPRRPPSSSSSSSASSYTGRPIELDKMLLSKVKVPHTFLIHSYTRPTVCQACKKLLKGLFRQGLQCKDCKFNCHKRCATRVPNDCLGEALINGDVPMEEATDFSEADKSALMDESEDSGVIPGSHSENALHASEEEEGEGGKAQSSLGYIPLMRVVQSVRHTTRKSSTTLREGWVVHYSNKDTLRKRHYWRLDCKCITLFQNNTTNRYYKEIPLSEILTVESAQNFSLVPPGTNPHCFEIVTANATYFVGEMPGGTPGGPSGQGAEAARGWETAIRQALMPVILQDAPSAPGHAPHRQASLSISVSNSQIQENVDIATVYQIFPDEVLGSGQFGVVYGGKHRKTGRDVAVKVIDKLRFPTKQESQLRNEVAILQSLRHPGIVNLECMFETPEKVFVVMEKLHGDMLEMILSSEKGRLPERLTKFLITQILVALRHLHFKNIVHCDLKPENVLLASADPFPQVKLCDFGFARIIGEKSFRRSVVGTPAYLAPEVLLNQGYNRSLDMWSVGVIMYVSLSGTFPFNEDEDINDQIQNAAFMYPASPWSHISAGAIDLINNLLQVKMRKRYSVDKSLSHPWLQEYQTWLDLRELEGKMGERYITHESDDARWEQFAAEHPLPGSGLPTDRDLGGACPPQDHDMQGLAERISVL
Kind of assay: Selectivity interaction (KinomeScan (DiscoverX)) EUB0000618a PRKD2. Particulars: at 10 µM.

Where only a bound is given, the exact number is not on record here.

Chain of Calcium/calmodulin-dependent protein kinase type II subunit gamma (Homo sapiens) (Q13555 whole entry): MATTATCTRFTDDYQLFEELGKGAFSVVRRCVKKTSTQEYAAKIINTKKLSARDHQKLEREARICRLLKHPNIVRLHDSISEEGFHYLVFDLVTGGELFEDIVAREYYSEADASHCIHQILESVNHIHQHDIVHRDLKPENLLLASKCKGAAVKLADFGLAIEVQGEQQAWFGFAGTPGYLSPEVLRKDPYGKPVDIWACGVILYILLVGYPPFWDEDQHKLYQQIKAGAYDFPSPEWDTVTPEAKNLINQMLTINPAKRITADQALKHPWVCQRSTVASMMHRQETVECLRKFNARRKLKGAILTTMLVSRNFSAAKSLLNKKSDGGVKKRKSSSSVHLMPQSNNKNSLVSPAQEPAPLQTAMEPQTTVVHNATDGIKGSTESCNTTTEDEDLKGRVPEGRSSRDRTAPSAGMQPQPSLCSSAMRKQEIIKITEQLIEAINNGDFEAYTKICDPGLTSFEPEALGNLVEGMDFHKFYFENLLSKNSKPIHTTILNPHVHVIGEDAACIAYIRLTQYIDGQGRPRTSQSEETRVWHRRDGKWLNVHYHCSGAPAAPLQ
Chain of Phosphatidylinositol 4-kinase beta (Q9UBF8 2-816 limits assumed): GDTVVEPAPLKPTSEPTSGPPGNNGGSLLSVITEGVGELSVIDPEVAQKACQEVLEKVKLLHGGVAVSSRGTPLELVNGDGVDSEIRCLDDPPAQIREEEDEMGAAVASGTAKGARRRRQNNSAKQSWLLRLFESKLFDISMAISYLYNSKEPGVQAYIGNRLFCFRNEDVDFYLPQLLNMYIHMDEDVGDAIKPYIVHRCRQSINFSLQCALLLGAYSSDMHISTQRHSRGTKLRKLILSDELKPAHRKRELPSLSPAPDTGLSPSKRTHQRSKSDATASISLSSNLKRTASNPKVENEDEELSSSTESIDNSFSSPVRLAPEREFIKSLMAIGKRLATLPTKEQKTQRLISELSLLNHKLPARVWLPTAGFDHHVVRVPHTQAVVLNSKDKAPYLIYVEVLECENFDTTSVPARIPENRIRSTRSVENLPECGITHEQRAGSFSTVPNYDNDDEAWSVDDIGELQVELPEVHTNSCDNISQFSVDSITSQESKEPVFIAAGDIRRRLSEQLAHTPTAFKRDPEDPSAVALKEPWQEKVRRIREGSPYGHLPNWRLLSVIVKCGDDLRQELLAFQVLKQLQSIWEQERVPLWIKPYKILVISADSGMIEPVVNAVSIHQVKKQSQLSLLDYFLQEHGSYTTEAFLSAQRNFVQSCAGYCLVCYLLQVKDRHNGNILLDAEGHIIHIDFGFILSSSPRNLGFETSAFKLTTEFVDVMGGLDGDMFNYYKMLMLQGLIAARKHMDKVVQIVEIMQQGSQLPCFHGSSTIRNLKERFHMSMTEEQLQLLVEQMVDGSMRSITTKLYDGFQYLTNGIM
Chain of Serine/threonine-protein kinase WNK3 (Homo sapiens) (Q9BYP7 whole entry): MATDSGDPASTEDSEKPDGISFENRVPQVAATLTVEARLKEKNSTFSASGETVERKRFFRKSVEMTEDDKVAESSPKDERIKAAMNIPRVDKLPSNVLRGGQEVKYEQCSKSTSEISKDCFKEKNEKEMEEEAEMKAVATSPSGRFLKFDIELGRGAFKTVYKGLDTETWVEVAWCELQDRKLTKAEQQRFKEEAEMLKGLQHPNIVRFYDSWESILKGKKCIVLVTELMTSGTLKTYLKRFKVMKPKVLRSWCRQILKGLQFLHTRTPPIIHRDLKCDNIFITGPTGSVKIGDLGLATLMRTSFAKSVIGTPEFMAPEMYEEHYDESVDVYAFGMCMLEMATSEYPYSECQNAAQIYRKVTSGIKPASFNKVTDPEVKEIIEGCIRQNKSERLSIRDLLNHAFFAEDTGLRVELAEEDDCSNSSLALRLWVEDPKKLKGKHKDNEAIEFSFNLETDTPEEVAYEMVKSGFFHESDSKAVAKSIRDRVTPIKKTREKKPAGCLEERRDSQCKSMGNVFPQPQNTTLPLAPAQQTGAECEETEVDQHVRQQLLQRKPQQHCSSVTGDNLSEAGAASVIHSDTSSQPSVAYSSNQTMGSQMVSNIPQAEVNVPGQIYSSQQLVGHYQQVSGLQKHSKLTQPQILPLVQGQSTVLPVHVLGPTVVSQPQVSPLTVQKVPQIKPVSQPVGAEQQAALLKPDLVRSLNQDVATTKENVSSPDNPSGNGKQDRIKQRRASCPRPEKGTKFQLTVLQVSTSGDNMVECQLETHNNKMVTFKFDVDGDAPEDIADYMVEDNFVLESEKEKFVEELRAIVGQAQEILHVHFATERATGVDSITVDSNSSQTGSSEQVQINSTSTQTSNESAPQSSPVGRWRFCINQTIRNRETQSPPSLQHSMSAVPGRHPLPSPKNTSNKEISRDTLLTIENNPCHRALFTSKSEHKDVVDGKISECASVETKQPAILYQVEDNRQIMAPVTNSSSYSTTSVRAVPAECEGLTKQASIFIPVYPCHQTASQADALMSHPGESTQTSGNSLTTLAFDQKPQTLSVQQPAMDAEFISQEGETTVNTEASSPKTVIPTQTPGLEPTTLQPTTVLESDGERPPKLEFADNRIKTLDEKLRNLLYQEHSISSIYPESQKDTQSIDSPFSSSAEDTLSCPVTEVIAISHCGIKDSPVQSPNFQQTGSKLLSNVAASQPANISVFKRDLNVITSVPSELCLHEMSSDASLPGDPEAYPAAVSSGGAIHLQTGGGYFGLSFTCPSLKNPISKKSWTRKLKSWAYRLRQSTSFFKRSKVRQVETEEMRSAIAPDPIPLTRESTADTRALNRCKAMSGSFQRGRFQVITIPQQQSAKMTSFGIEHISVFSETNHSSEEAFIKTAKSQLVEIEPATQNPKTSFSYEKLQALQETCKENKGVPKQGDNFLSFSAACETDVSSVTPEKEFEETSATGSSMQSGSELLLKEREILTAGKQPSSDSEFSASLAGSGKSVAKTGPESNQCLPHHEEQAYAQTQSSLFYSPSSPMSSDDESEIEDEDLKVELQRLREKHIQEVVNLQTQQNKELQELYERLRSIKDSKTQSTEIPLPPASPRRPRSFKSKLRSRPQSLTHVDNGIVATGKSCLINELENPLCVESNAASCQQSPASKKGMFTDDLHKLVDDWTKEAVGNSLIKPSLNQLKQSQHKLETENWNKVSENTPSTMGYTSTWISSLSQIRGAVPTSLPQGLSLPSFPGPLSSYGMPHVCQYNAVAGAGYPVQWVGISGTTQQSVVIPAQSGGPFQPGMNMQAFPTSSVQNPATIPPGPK
Chain of Death-associated protein kinase 3 (Homo sapiens) (O43293 whole entry, looked up): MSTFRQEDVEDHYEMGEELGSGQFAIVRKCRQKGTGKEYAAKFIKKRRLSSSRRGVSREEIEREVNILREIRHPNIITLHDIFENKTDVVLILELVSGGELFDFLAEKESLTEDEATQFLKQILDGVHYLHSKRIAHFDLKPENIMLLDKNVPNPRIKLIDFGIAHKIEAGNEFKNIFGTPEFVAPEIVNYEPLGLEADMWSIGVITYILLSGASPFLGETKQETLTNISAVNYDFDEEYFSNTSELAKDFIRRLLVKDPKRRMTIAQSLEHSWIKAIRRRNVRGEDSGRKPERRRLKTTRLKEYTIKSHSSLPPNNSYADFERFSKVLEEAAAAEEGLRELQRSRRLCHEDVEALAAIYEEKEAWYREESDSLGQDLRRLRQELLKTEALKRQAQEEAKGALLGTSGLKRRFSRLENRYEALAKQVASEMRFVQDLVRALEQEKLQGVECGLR
Chain of Cyclin-dependent kinase 9 (P50750 whole entry): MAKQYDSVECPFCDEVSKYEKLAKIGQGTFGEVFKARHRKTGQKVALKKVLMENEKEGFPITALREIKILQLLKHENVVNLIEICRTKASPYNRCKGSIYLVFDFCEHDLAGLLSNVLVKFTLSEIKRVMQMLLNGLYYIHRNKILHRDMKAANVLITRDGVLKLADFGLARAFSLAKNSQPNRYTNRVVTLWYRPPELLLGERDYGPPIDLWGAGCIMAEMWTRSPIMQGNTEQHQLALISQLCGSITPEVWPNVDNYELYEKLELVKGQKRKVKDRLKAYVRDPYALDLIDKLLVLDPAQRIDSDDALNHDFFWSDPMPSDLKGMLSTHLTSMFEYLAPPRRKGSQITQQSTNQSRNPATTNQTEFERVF
Chain of AP2-associated protein kinase 1 (Q2M2I8 whole entry, looked up): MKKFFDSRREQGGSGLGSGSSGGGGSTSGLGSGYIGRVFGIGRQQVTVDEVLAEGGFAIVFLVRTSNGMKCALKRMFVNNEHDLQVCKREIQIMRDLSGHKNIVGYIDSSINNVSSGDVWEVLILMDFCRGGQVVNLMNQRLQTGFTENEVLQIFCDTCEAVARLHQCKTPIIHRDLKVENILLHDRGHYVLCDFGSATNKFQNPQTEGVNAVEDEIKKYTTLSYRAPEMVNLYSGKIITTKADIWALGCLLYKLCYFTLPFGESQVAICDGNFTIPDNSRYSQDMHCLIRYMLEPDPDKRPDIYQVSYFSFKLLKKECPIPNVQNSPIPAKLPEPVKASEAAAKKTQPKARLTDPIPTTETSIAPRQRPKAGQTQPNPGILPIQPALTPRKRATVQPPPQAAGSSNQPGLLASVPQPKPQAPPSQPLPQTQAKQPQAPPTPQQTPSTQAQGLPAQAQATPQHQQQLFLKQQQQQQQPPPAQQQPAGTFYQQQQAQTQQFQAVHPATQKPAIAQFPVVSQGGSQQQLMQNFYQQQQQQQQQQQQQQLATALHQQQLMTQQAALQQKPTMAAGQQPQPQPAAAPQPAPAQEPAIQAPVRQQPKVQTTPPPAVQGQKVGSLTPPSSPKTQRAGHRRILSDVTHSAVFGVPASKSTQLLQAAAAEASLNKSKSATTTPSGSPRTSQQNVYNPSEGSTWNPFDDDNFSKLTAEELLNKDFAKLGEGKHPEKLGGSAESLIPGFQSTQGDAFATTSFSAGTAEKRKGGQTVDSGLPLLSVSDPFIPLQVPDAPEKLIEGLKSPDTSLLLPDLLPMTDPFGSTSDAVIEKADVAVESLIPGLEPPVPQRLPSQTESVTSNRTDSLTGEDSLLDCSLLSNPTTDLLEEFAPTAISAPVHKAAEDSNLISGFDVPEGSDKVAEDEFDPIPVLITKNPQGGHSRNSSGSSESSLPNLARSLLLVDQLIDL

On to `C=CC(=O)Nc1cccc(C(=O)Nc2ccc(Nc3cc(-c4[nH]c(SC)nc4C)ccn3)cc2)c1`, for which the % of control in assay [1] (at 1 µM) turned out to be 81%; in assay [1] (at 5 µM) it was 54%; in assay [2] (at 1 µM), 101%; in assay [2] (at 5 µM) it was 79%.
On to `COc1cc(Nc2nc(C)cc(-c3cnn4nc(OC)ccc34)n2)cc(C(F)(F)F)c1`, for which the figures for the % of control in assay [3] and in [4] were 96% and 100%, respectively.
Turning to `Cn1cc(-n2cnc3c(NCc4nc5cc(Cl)c(Cl)cc5[nH]4)nc(N4CCOCC4)nc32)cn1`, the % of control in assay [5] is 11.9%; in assay [6], -3.73%.
As for `COc1cc(N(C)c2ccnc3ccc(C(F)(F)F)cc23)cc(OC)c1OC`, in assay [7], the % binding was 80%.
Consider `CCC(=O)N1CC[C@H](Nc2ncnc3c2CN(c2cnc(OC)c(C(F)(F)F)c2)CC3)C1` [LENIOLISIB], for which the IC50 in assay [8] was over 30 µM.
As for `N#Cc1cccc(-c2c[nH]c3ncnc(N4CCOCC4)c23)c1`, the % of control in assay [9] came out at 100%.
On to `O[C@H]1CC[C@H](Nc2ncc3nc(Nc4c(F)cc(F)cc4F)n([C@H]4CCOC4)c3n2)CC1`, for which the % of control in [10] was found to be 77%.

The record behind these values is ChEMBL document CHEMBL5465560, “Selectivity Literature for EUbOPEN Chemogenomic Library” (2024).
